Laboratory results from patent US4923813A, “Monoclonal antibody-based immunoassay for cyclic DNA adducts resulting from exposure to crotonaldehyde or acrolein” (American Health Foundation, priority 1988, dated 1990).

How the values were obtained:
monoclonal antibody CA1 = assay: competitive ELISA, inhibition of binding of antibody CA1 to structure 1a,b-KLH conjugate; design: species or system mouse; conditions: for pmol of compound needed for 50% inhibition of binding in the competitive ELISA, CA1: plate coated with structure 1a,b-KLH conjugate
Description: (§1) Screening for Antibody Production. In order to screen the fused cells for the production of antibody specific for the cyclic deoxyguanosine adducts, an enzyme-linked immunosorbent assay ("ELISA") may be used. ELISA links soluble antigens to insoluble antibodies or soluble antibodies to solid phase antigens in a manner that allows both immunolgical and enzymatic activity to be retained.
(§2) ELISA techniques for antigen or antibody quantification are well-known to the art. By way of example, wells of a 96-well polystyrene ELISA plate may be coated with 10 ng of structure a, b-KLH conjugate, diluted in Phosphate buffered saline (PBS), for 1 h at room temperature. The wells may be washed twice with PBS containing 0.1% Tween 20 and twice with distilled H2 O. From this point all reagents may be diluted in PBS containing 0.1% bovine serum albumin ("BSA"). Wells are filled with 50 μl of PBS-BSA followed by 50 μl of culture supernatant and incubated at room temperature for 1 h. For competitive ELISA, adduct standards or test samples are mixed with the monoclonal antibody and added to the well. The wells are washed and 100 μl of alkaline phosphatase-labeled goat anti-mouse 1 gG antibody (Kirkegaard & Perry Laboratories, Inc., Gaithersburg, Md.) are added to each well and incubated at room temperature for 1 h. After washing, 100 μl of substrate solution (1 mg/ml of p-nitrophenylphosphate in 1M diethanolamine buffer, pH 9.8) are added to each well and incubated at room temperature for 30 min. […] In quantitative experiments the concentration of unknown samples may be determined by comparison to a standard curve relating the log of the inhibitor concentration to the logit of the percentage of inhibition [formula]
(§3) Using the above-identified procedures, a single mouse was boosted with the structure 1a,b-KLH conjugate for 4 consecutive days and the fusion was performed on the fifth day.

monoclonal antibody CA2 = assay: competitive ELISA, inhibition of binding of antibody CA2 to structure 1a,b-KLH conjugate; design: species or system mouse; conditions: for pmol of compound needed for 50% inhibition of binding in the competitive ELISA, CA2: plate coated with structure 1a,b-KLH conjugate
Description: as §1, §2, §3

monoclonal antibody CA3 = assay: competitive ELISA, inhibition of binding of antibody CA3 to structure 1a,b-KLH conjugate; design: species or system mouse; conditions: for pmol of compound needed for 50% inhibition of binding in the competitive ELISA, CA3: plate coated with structure 1a,b-KLH conjugate
Description: as §1, §2, §3

monoclonal antibody CA4 = assay: competitive ELISA, inhibition of binding of antibody CA4 to structure 1a,b-KLH conjugate; design: species or system mouse; conditions: plate coated with structure 1a,b-KLH conjugate
Description: as §1, §2, §3

[1] = system: the four antibodies (CA1, CA2, CA3, CA4); assay: competitive ELISA, reactivity of the four antibodies; format: binding, mouse; conditions: all four antibodies; O6-methyldeoxyguanosine: with the exception of CA3
Description: as §1, §2, §3

SMILES	affinity of antibody CA1 (monoclonal antibody CA1)	pmol of compound needed for 50% inhibition of binding in the competitive ELISA, CA1 (monoclonal antibody CA1)	pmol of compound needed for 50% inhibition of binding in the competitive ELISA, CA2 (monoclonal antibody CA2)	affinity / reactivity of antibody CA3 (monoclonal antibody CA3)	pmol of compound needed for 50% inhibition of binding in the competitive ELISA, CA3 (monoclonal antibody CA3)	pmol of compound needed for 50% inhibition of binding in the competitive ELISA, CA4 (monoclonal antibody CA4)	reactivity / cross-reactivity with the four antibodies [1]	specificity of antibody CA2 (monoclonal antibody CA2)
CC1CC(O)n2c(nc3c(ncn3[C@H]3C[C@H](O)[C@@H](CO)O3)c2=O)N1 (mixture of isomers) [1a, 8R, 6R- and 8S, 6S-3-(2-deoxy-3-β-erythro-pentofuranosyl) 5,6,7,8-tetrahydro-8-hydroxy-6-methylpyrimido(1,2-a)purine-10(3H)one]	lower affinity	12.8 pmol	17 pmol	highest affinity of the four antibodies	0.2 pmol	10 pmol	strongest	–
CC1CC(O)n2c(nc3c(ncn3[C@H]3C[C@H](O)[C@@H](CO)O3)c2=O)N1 (mixture of isomers) [1b, 8R, 6R- and 8S, 6S-3-(2-deoxy-3-β-erythro-pentofuranosyl) 5,6,7,8-tetrahydro-8-hydroxy-6-methylpyrimido(1,2-a)purine-10(3H)one]	high apparent affinity	0.2 pmol	0.4 pmol	–	10 pmol	0.9 pmol	strongest	–
CC1CC(O)n2c(nc3[nH]cnc3c2=O)N1 (stereo not drawn) [1,base]	–	8.6 pmol	69 pmol	–	143 pmol	30 pmol	Cross-reactivity	–
O=c1c2ncn([C@H]3C[C@H](O)[C@@H](CO)O3)c2nc2n1CCC(O)N2 (stereo partly drawn) [1c]	–	90 pmol	9 pmol	less reactive than the above three molecules	5 pmol	112 pmol	Cross-reactivity	–
O=c1c2ncn([C@H]3C[C@H](O)[C@@H](CO)O3)c2nc2n1C(O)CCN2 (stereo partly drawn) [1d]	–	0.8 pmol	0.2 pmol	–	0.9 pmol	7.9 pmol	Cross-reactivity	most specific
O=c1c2ncn([C@H]3C[C@H](O)[C@@H](CO)O3)c2nc2n1C(O)C(O)N2 (stereo partly drawn) [1e]	–	113 pmol	156 pmol	–	22 pmol	41,470 pmol	Cross-reactivity	–
Nc1ncnc2c1ncn2[C@H]1C[C@H](O)[C@@H](CO)O1 [Deoxyadenosine, reference compound]	–	> 80,000 pmol	> 80,000 pmol	–	> 80,000 pmol	> 80,000 pmol	–	–
Nc1ccn([C@H]2C[C@H](O)[C@@H](CO)O2)c(=O)n1 [Deoxycytosine, reference compound]	–	> 110,000 pmol	> 110,000 pmol	–	> 110,000 pmol	> 110,000 pmol	–	–
Nc1nc2c(ncn2[C@H]2C[C@H](O)[C@@H](CO)O2)c(=O)[nH]1 [Deoxyguanosine, reference compound]	–	2,564 pmol	698 pmol	–	14 pmol	5,370 pmol	significant cross-reactivity	–
Cc1cn([C@H]2C[C@H](O)[C@@H](CO)O2)c(=O)[nH]c1=O [Thymidine, reference compound]	–	> 100,000 pmol	> 100,000 pmol	–	> 100,000 pmol	> 100,000 pmol	–	–
COc1nc(N)nc2c1ncn2[C@H]1C[C@H](O)[C@@H](CO)O1 [reference compound]	–	56,790 pmol	51,270 pmol	–	235 pmol	> 100,000 pmol	unreactive	–
